Consider 12 compounds from US20100063092A1, “3-CYANO-4-(4-PHENYL-PIPERIDIN-1-YL)-PYRIDIN-2-ONE DERIVATIVES” (Ortho-Mcneil-Janssen Pharmaceuticals, Inc., priority 2007, published 2010).

For data set [1], the target named is T1, human mGluR2 (Homo sapiens, UniProt Q14416).
T1 construct: expressed in transfected cells; host or cells: CHO cells (membranes)
The data set is described as follows: [35S]GTPγS binding assay (PAM assay). Format: biochemical. From the text:
The compounds provided in the present invention are positive allosteric modulators of mGluR2. These compounds appear to potentiate glutamate responses by binding to an allosteric site other than the glutamate binding site. The response of mGluR2 to a concentration of glutamate is increased when compounds of formula (I) are present. Compounds of formula (I) are expected to have their effect substantially at mGluR2 by virtue of their ability to enhance the function of the receptor. The behaviour of positive allosteric modulators tested at mGluR2 using the [^35S]GTPγS binding assay method described below and which is suitable for the identification of such compounds, and more particularly the compounds according to formula (I), are shown in Table 3.
The [^35S]GTPγS binding assay is a functional membrane-based assay used to study G-protein coupled receptor (GPCR) function whereby incorporation of a non-hydrolysable form of GTP, [^35S]GTPγS (guanosine 5′-triphosphate, labelled with […] ^35S), is measured. The G-protein […] catalyzes the exchange of guanosine 5′-diphosphate (GDP) by guanosine triphosphate (GTP) and on activation of the GPCR by an agonist, [^35S]GTPγS, becomes incorporated and cannot be cleaved to continue the exchange cycle (Harper (1998) Current Protocols in Pharmacology 2.6.1-10, John Wiley & Sons, Inc.). […] Here we describe the use of the [^35S]GTPγS binding assay using membranes from cells transfected with the human mGluR2 receptor and adapted from Schaffhauser et al ((2003) Molecular Pharmacology 4:798-810) for the detection of the positive allosteric modulation (PAM) properties of the compounds of this invention.
CHO-cells were cultured to pre-confluence and stimulated with 5 mM butyrate for 24 hours, prior to washing in PBS, and then collection by scraping in homogenisation buffer (50 mM Tris-HCl buffer, pH 7.4, 4° C.). Cell lysates were homogenized briefly (15s) using an ultra-turrax homogenizer. The homogenate was centrifuged at 23 500×g for 10 minutes and the supernatant discarded. The pellet was resuspended in 5 mM Tris-HCl, pH 7.4 and centrifuged again (30 000×g, 20 min, 4° C.). The final pellet was resuspended in 50 mM HEPES, pH 7.4 and stored at −80° C. in appropriate aliquots before use. Protein concentration was determined by the Bradford method (Bio-Rad, USA) with bovine serum albumin as standard.
Measurement of mGluR2 positive allosteric modulatory activity of test compounds in membranes containing human mGluR2 was performed using frozen membranes that were thawed and briefly homogenised prior to pre-incubation in 96-well microplates (15 μg/assay well, 30 minutes, 30° C.) in assay buffer (50 mM HEPES pH 7.4, 100 mM NaCl, 3 mM MgCl2, 50 μM GDP, 10 μg/ml saponin,) with increasing concentrations of positive allosteric modulator (from 0.3 nM to 50 μM) and either a minimal pre-determined concentration of glutamate (PAM assay), or no added glutamate. For the PAM assay, membranes were pre-incubated with glutamate at EC25 concentration, i.e. a concentration that gives 25% of the maximal response glutamate, and is in accordance to published data (Pin et al. (1999) Eur. J. Pharmacol. 375:277-294). After addition of [^35S]GTPγS (0.1 nM, f.c.) to achieve a total reaction volume of 200 μl, microplates were shaken briefly and further incubated to allow [^35S]GTPγS incorporation on activation (30 minutes, 30° C.). The reaction was stopped by rapid vacuum filtration over glass-fibre filter plates (Unifilter 96-well GF/B filter plates, Perkin-Elmer, Downers Grove, USA) microplate using a 96-well plate cell harvester (Filtermate, Perkin-Elmer, USA), and then by washing three times with 300 μl of ice-cold wash buffer (Na2PO4.2H20 10 mM, NaH2PO4.H20 10 mM, pH=7.4). Filters were then air-dried, and 40 μl of liquid scintillation cocktail (Microscint-O) was added to each well, and membrane-bound [^35S]GTPγS was measured in a 96-well scintillation plate reader (Top-Count, Perkin-Elmer, USA). […]
Background: GTPγS is a poorly hydrolysed GTP analogue; its binding reports G protein activation.

Where [2] appears, read: compounds of formula (I'), protocol of section D ([35S]GTPγS, human mGluR2, glutamate EC25), read-out: pEC50 (see section D for protocol) (converted).
The mark [3] stands for this setting: membranes from CHO cells transfected with human mGluR2, in presence of glutamate at predetermined EC25 concentration, averages of duplicate values of 11-concentration response curves, read-out: GTPgS - hR2 PAM pEC50 (converted).

Where two headings read alike, the source gives them in different places.

T1 sequence (Q14416 19-872): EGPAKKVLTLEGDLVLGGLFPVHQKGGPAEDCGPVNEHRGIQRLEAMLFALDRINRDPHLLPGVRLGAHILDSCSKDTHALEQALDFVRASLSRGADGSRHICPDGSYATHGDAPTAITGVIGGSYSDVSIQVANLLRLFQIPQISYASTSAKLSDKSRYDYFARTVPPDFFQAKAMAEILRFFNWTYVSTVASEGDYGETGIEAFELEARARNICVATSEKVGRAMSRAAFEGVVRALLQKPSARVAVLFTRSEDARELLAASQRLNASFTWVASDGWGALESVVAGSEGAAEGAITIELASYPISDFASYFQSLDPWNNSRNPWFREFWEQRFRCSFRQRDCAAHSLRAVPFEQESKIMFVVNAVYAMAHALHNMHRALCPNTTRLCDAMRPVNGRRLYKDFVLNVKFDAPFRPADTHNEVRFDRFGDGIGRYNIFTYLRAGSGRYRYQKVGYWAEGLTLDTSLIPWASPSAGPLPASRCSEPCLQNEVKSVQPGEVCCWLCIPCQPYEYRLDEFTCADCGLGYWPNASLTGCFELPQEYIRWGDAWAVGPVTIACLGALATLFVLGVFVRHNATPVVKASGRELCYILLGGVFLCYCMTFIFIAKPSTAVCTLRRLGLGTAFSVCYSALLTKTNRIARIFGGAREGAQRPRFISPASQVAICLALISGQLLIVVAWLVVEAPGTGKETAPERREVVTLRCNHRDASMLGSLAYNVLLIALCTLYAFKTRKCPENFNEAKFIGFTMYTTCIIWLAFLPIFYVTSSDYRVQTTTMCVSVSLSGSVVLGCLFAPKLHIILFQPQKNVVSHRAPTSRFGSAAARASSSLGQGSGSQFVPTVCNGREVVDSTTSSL

Turning to `CCCCn1ccc(N2CCC(O)(c3cccc(Cl)c3)CC2)c(C#N)c1=O`, the EC50 in data set [1] (setting [2]) is 200 nM.
The same measure, in the same setting: next, `CCCCn1ccc(N2CCC(O)(c3ccc(Cl)cc3)CC2)c(C#N)c1=O`: 100 nM; `CCCCn1ccc(N2CCC(O)(c3ccc(F)cc3)CC2)c(C#N)c1=O`: 398 nM; `N#Cc1c(N2CCC(O)(c3ccc(F)cc3)CC2)ccn(CC2CC2)c1=O`: 501 nM.
Same read-out and setting: as for `N#Cc1c(N2CCC(O)(c3ccccc3)CC2)ccn(CC2CC2)c1=O`, the figure is 1000 nM.
By melting point is commonly meant the temperature, or range, at which the solid turns liquid. The compound `N#Cc1c(N2CCC(F)(c3ccccc3)CC2)ccn(CC2CC2)c1=O` [Compound 1, 1′-Cyclopropylmethyl-4-fluoro-2′-oxo-4-phenyl-3,4,5,6,1′,2′-hexahydro-2H-[1,4′]bipyridinyl-3′-carbonitrile] yielded a melting point of 189.2 °C. The EC50 in data set [1] (setting [3]) was 263 nM.
Take `CCCCn1ccc(N2CCC(F)(c3ccccc3)CC2)c(C#N)c1=O` [Compound 2, 1′-Butyl-4-fluoro-2′-oxo-4-phenyl-3,4,5,6,1′,2′-hexahydro-2H-[1,4′]bipyridinyl-3′-carbonitrile]: in data set [1] (setting [3]), the EC50 is 174 nM.
`CCCCn1ccc(N2CCC(CO)(c3ccccc3)CC2)c(C#N)c1=O` [Compound 4, 1′-Butyl-4-hydroxymethyl-2′-oxo-4-phenyl-3,4,5,6,1′,2′-hexahydro-2H-[1,4′]bipyridinyl-3′-carbonitrile]: the melting point was found to be 103.2 °C. For the same compound, the EC50 in data set [1] (setting [3]) was 2040 nM.
For `N#Cc1c(N2CCC(CF)(c3ccccc3)CC2)ccn(CC2CC2)c1=O` [Compound 5, 1′-Cyclopropylmethyl-4-fluoromethyl-2′-oxo-4-phenyl-3,4,5,6,1′,2′-hexahydro-2H-[1,4′]bipyridinyl-3′-carbonitrile], in data set [1] (setting [3]), the EC50 is 1200 nM.
Turning to `CCCCn1ccc(N2CCC(CF)(c3ccccc3)CC2)c(C#N)c1=O` [Compound 6, 1′-Butyl-4-fluoromethyl-2′-oxo-4-phenyl-3,4,5,6,1′,2′-hexahydro-2H-[1,4′]bipyridinyl-3′-carbonitrile], the EC50 in data set [1] (setting [3]) was 447 nM.
Still for that read-out and setting: next, `CCCCn1ccc(N2CCC(OCCF)(c3ccccc3)CC2)c(C#N)c1=O` [Compound 7, 1′-Butyl-4-fluoroethyloxy-2′-oxo-4-phenyl-3,4,5,6,1′,2′-hexahydro-2H-[1,4′]bipyridinyl-3′-carbonitrile]: 186 nM.
`N#Cc1c(N2CCC(c3ccccc3)CC2)ccn(CC2CC2)c1=O` [Compound 8, 3-cyano-1-cyclopropylmethyl-4-(4-phenyl-piperidin-1-yl)-pyridine-2(1H)-one] yielded a melting point of 128 °C. Moreover, the EC50 in data set [1] (setting [3]) is 316 nM.
